Reference: PubChem BioAssay (NCI)
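Interpolation was linear, between the two tested concentrations surrounding the appropriate level; five concentrations were tested over 48 hours in 96-well plates. TGI denotes the concentration required for complete inhibition of growth.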

Key:
Assay in all cases: NCI tumour cell line growth inhibition, 48 h
SR leukemia = tested on: SR leukemia
A498 renal = tested on: A498 renal
HOP-92 NSCLC = tested on: HOP-92 NSCLC
NCI-H226 lung = tested on: NCI-H226 lung
MDA-MB-435 = tested on: MDA-MB-435
HS 578T breast = tested on: HS 578T breast
ACHN renal = tested on: ACHN renal
OVCAR-4 ovarian = tested on: OVCAR-4 ovarian
MOLT-4 leukemia = tested on: MOLT-4 leukemia
T-47D breast = tested on: T-47D breast
A549 NSCLC = tested on: A549 NSCLC
NCI/ADR-RES ovarian = tested on: NCI/ADR-RES ovarian
NCI-H23 lung = tested on: NCI-H23 lung
SNB-19 CNS = tested on: SNB-19 CNS
SW-620 colon = tested on: SW-620 colon
DU-145 prostate = tested on: DU-145 prostate
SNB-75 CNS = tested on: SNB-75 CNS
LOX IMVI melanoma = tested on: LOX IMVI melanoma
SF-295 CNS = tested on: SF-295 CNS

Structure (SMILES)	TGI (SR leukemia) [µM]	TGI (A498 renal) [µM]	TGI (HOP-92 NSCLC) [µM]	TGI (NCI-H226 lung) [µM]	TGI (MDA-MB-435) [µM]	TGI (HS 578T breast) [µM]	TGI (ACHN renal) [µM]	TGI (OVCAR-4 ovarian) [µM]	TGI (MOLT-4 leukemia) [µM]	TGI (T-47D breast) [µM]	TGI (A549 NSCLC) [µM]	TGI (NCI/ADR-RES ovarian) [µM]	TGI (NCI-H23 lung) [µM]	TGI (SNB-19 CNS) [µM]	TGI (SW-620 colon) [µM]	TGI (DU-145 prostate) [µM]	TGI (SNB-75 CNS) [µM]	TGI (LOX IMVI melanoma) [µM]	TGI (SF-295 CNS) [µM]
COc1cc(C2SCC(=O)N2c2ccc(-c3ccc(-n4c(-c5ccccc5)nc5ccccc5c4=O)cc3)cc2)cc(OC)c1OC (stereo not given)	> 100	> 100	> 100	> 100	> 100	> 100	> 100	> 100	> 100	> 100	> 100	> 100	> 100	> 100	> 100	> 100			
O=C(O)c1ccc(S(=O)(=O)c2ccccc2[N+](=O)[O-])cc1	> 10	> 10		> 10	> 10	> 10	> 10	> 10	> 10	> 10	> 10	> 10	> 10	> 10	> 10	> 10	> 10	> 10	> 10
O=c1[nH]nc(Cc2ccc([N+](=O)[O-])cc2)n1CCO		> 100	> 100	> 100	> 100	> 100	> 100	> 100		> 100	> 100	> 100	> 100	> 100	> 100	> 100		> 100	> 100
CCOC(=O)/C=C(/C(=O)OCC)n1ccc(N)nc1=O	> 100		> 100	> 100	> 100	> 100	> 100	> 100	> 100	> 100	> 100	> 100	> 100	> 100	> 100	> 100	> 100	> 100	> 100
CCn1nc2c3c(ncn3C(C)(C)O2)c1=O	> 100	> 100	> 100	> 100	> 100	> 100	> 100	> 100	> 100	> 100	> 100	> 100	> 100	> 100	> 100	> 100		> 100	> 100
CN(NC(=O)c1cccs1)C1=NCCCN1	> 100	> 100	> 100	> 100	> 100	> 100	> 100	> 100	> 100	> 100	> 100	> 100	> 100	> 100	> 100		> 100	> 100	> 100
O=C(O)CC[N+]1=CCC(c2ccccc2)(c2ccccc2)O1		> 100	> 100	> 100	> 100	> 100	> 100	> 100	> 100	> 100	> 100		> 100	> 100	> 100	> 100	> 100		> 100
CCN1C(=O)C(=C/C=C/c2ccc([N+](=O)[O-])cc2)C(=O)N(CC)C1=S			34.2	> 100	47.7	55.1	32.1	> 100	> 100	> 100	> 100	45.2	32.8	> 100	36.8	33.3		33.2	> 100
Cc1ccn2c(=O)cc(-c3ccccc3)nc2c1	> 100		> 100	> 100		> 100	> 100	> 100	> 100	> 100	> 100	> 100	> 100	> 100	> 100	> 100	> 100		> 100
Nc1c(Cl)ncnc1N[C@@H]1C[C@H]1CO	> 100	> 100	> 100		> 100	> 100	> 100	> 100	> 100	> 100	> 100	> 100	> 100	> 100	> 100	> 100	> 100	> 100	> 100
CC1CCOc2ccc(cc2)C=Nc2ccc(cc2)CCc2ccc(cc2)N=Cc2ccc(cc2)OCC1 (stereo not given)	> 100	> 100	> 100	> 100	> 100	> 100	> 100	> 100	> 100		> 100	> 100	> 100	> 100	> 100	> 100	77.3	> 100	> 100
CCC(C#N)NC(=O)NC(C#N)CC (stereo not given)	> 100	> 100	> 100	> 100	> 100	> 100	> 100	> 100	> 100	> 100	> 100	> 100	> 100	> 100	> 100	> 100		> 100	> 100
Cc1ccc2nc(Cl)c(/C=N/N3C(=O)/C(=C/c4ccccc4S)N=C3c3ccccc3)cc2c1	60.8	> 100	> 100		31.8	58	> 100	> 100	15.1	> 100	> 100	76.5		> 100	> 100	> 100	86.5	> 100	84
CC(=O)N1N=C(c2ccc3ccccc3c2O)CC1C(=O)c1ccco1 (stereo not given)	18.6	> 100	> 100	> 100	> 100	> 100	> 100	> 100	24.4	> 100	> 100	57.8	> 100		> 100	> 100	> 100		> 100
Cc1ccc(-c2cc(N)n(-c3nc4c(c(=O)n(C)c(=O)n4C)n3C)n2)cc1	> 100	> 100	> 100	> 100	> 100	> 100	> 100	> 100	> 100	> 100	> 100	> 100	> 100	> 100		> 100			> 100
N#Cc1c(-c2ccccc2)nc(-c2ccccc2)sc1=S		> 100	> 100	> 100	> 100	> 100	> 100	> 100		> 100	> 100	> 100	> 100	> 100	> 100	> 100	> 100	> 100	> 100
CC1=COC(C)(C=C(C#N)C#N)CC1 (stereo not given)	> 100	> 100		> 100	> 100	51.3	> 100	> 100	> 100	> 100	> 100	> 100	> 100	> 100	> 100	> 100	> 100		> 100
Nc1cccc(Nc2nc3ccccc3nc2NS(=O)(=O)c2ccccc2)c1	57.8		78	> 100	62.4	> 100	> 100	46.5	48.9	> 100	> 100	> 100	42.6	62.2	44.2	> 100	> 100	47.3	> 100
CN(C)c1ccc(C2SCC(=O)N2NS(=O)(=O)c2cccc(C(=O)O)c2)cc1 (stereo not given)			> 100	> 100	> 100	> 100	> 100		> 100	> 100	> 100		> 100	> 100	> 100	> 100	> 100	> 100	> 100
O=C1NC(N/N=C/C(O)C(O)C(O)CO)=N/C1=C\c1ccco1 (stereo not given)		> 100	> 100	> 100	> 100	> 100	> 100	> 100	> 100	> 100	> 100	> 100	> 100	> 100	> 100	> 100	> 100	> 100	> 100
CC(=O)O[C@H]1C#C/C=C\C#CC[C@@H]2C(=O)N[C@@H]12		98.9	98.9	90.8	> 100	> 86.2	52.2	> 100	> 100	> 100	> 100	> 75.9	60.9	> 100	> 100	62	> 90.7	> 50.2	> 100
O=C(NCCCCCCNCc1cccc2ccccc12)Nc1cccc2ccccc12		> 100	> 100		> 100	> 100	> 100	> 100	> 100	> 100	> 100	> 100	> 100	> 100	> 100	> 100	> 100	> 100	> 100
CC1(CF)SCc2nc3ccccc3n21 (stereo not given)	> 100	> 100	> 100	> 100	> 100	> 100	> 100			> 100	> 100	> 100	> 100	> 100	> 100	> 100	> 100	> 100	> 100
CCCCCC(=O)NC(=S)Nc1nn[nH]n1	> 100	> 100	> 100		> 100	> 100		> 100	> 100	> 100	> 100		> 100	> 100	> 100	> 100	> 100	> 100	> 100
NC(=O)NNC(=O)c1nc[nH]c1[N+](=O)[O-]		> 100		> 100	> 100	> 100		> 100	> 100	> 100	> 100	> 100	> 100		> 100	> 100	> 100	> 100	
O=c1nc2c(c(-c3ccccc3Cl)[nH]1)COC/C2=C\c1ccccc1Cl		> 100	> 100	> 100	> 100	> 100	> 100	> 100	> 100	> 100		> 100	> 100	> 100	> 100	> 100	> 100	> 100	> 100
CCCSc1ccc2[nH]c(/N=C/c3ccco3)cc2c1	35.7	> 100	> 100		> 100	> 100	> 100	> 100		> 100	> 100	> 100	> 100	> 100	> 100	> 100	> 100	> 100	> 100
CC1=NN(c2ccc(S(=O)(=O)O)cc2)C2(C1)SCC(=O)N2c1nc2ccccc2s1 (stereo not given)		> 100	> 100	> 100	> 100	> 100	> 100	> 100	> 100	> 100	> 100	> 100	> 100	> 100	> 100	> 100	> 100	> 100	> 100
